Results from patent US10428024B2, “Piperidinyl derivatives” (MERCK PATENT GMBH, priority 2016, dated 2019).

Assays:
PDHK2 = PDHK2 (Homo sapiens (Human), UniProt Q15119); test: Biochemical activity testing of PDHK2: PDC inactivation assay; settings: human rec PDHK2, 5 μM ATP, read-out: IC50 PDHK2 (enzyme assay)
Excerpt: Biochemical Activity Testing of PDHK2: PDC Inactivation Assay
The biochemical activity assay for PDHK2 is based on the inactivation of PDC through phosphorylation by PDHK2. The assay is run in two steps: the enzymatic PDHK2 reaction in which isolated PDC is phosphorylated by PDHK2 with ATP as co-substrate and the PDC activity assay in which pyruvate and NAD are converted to acetyl-CoA and NADH. The PDC activity correlates to the increase in NADH and thereby is detectable directly via the increasing fluorescence signal (Exc 340 nm, Em 450 nm). Inhibition of PDHK2 results in a lower phosphorylation status and thereby a less decrease in activity of PDC and a stronger increase in NADH fluorescence signal.
The PDC inactivation assay is performed in Greiner 384-well microtiter plates and is used for high throughput screen. 4 μl of PDHK2 (human, rec, Carna Bioscience, 10 ng/μl-137 nM final concentration) and PDC (isolated from porcine heart, Sigma-Aldrich, 20 mU/ml final concentration) are incubated in the absence or presence of the test compound (10 dilution concentrations) for 30 min at room temperature in kinase buffer (15 mM potassium phosphate buffer, pH 7.0, 60 mM KCl, 1.5 mM DTT, 2.5 mM MgCl2, 0.0125% (w/v) BSA, 0.125% Pluronic F-68). The kinase reaction is started by the addition of 4 μl ATP substrate solution (fc 5 μM in kinase buffer). After 30 min incubation at 37° C. 40 μl of PDC reaction solution (100 mM Tris/HCl, pH 7.8, 0.5 mM EDTA, 1 mM MgCl2, 50 mM NaF, 0.25 mM Coenzyme A, 5 mM pyruvate, 1 mM NAD, 5 mM DTT, 1 mM thiamine pyrophosphate) is added. The first fluorescence measurement is performed on a Perkin Elmer Envision (Exc 340 nm, Em 450 nm). The reaction is incubated for 45 min at room temperature. Afterwards a second fluorescence measurement is performed and the PDC activity is calculated by the difference between both measurements. As full value for the PDHK2 assay the inhibitor-free PDHK2 reaction is used. The pharmacological zero value used is DCA (Sigma-Aldrich) in a final concentration of 3 mM. The inhibitory values (IC50) were determined using either the program Symyx Assay Explorer® or Condosseo® from GeneData.

human PDHK2 (12-407) = human PDHK2 (12-407) (Homo sapiens (Human), UniProt Q15119); test: Isothermal titration calorimetry (ITC); settings: 30° C., pH 7.5; read-out: Binding (ITC) KD
Experimental: Isothermal Titration Calorimetry
ITC measurements were performed with a VP-ITC micro calorimeter (Microcal, LLC/GE Healthcare Bio-Sciences AB, Uppsala, Sweden). In general titrations were performed by titrating the protein (50 μM) to the test compound (5 μM) in 12 μl injections. All binding experiments were carried out at 30° C. In general the test compounds were diluted form DMSO stock solutions into the measurement buffer with a maximum final concentration of 1% DMSO. The measurement buffer was 20 mM HEPES, 135 mM KCl, 1 mM TCEP, 2 mM MgCl2, 15 mM NaH2PO4, pH 7.5. The human PDHK2 (12-407) was produced in E. coli as his-tagged protein and purified by affinity chromatography. The tag was removed by side specific proteolysis. Before titration the protein buffer was changed to the measurement buffer containing the same DMSO concentration as the test compound dilution. ITC data analysis was performed using Origin 7 calorimetry software from the same supplier. For most measurements a binding model of one binding site was assumed. According to the applied mathematical model it is possible to calculate the binding constant (KA), the observed binding enthalpy (ΔH^obs) as well as the stoichiometry (N) of the formed complex. Preceding analysis the raw data was corrected for the heats of dilution by extrapolating from the saturation value from the end of titration. In order to allow for direct comparison between the respective experimental series and protein preparations the protein concentration was corrected by referencing titrations to a well behaved standard inhibitor. The apparent stoichiometry values defined the fraction of binding competent protein and compensated for relative errors in protein concentration measurements. This corrected protein concentration was used to set up ITC experiment series with test compounds. Any deviations from ideal 1:1 stoichiometry observed here were attributed to errors in compound concentration. This nominal compound concentration was corrected as well to achieve 1:1 stoichiometry in the fit.

[1] = test system: PDH-E1alpha (pSer300) in HEK293T cells; test: Cellular immunofluorescence assay (Anti-PDH-E1alpha (pSer300)) in HEK293T cells; type: cell-based; settings: Homo sapiens, HEK-293T, 5 hours incubation, read-out: IC50 (cell data)
Experimental: Cellular Assay for Determination of Compound Activities
Compound activities were determined in a cellular immunofluorescence assay.
Human HEK293T cells were seeded into black 384-well plates with clear bottom and grown overnight.
Next day, test compounds were added to the wells and the plates incubated for 5 hours. Following this, cells were fixed with formaldehyde, permeabilised and blocked. The primary antibody, Anti-PDH-E1alpha (pSer300), AP1064 (Merck Millipore) was added and incubated overnight in the plate wells. Next, cells were washed and the secondary antibody, Alexa Fluor 488, goat anti-rabbit ab (A-11008, Invitrogen) was added together with Hoechst 33258 (H3569, Invitrogen) and incubated for 1 hour in the plate wells. Finally, cells were washed and the plates were measured on the laser scanning cytometer acumen hci (TTpLabtech).
The raw data were normalized against a pharmacological inhibitor control and dose response curves were generated by plotting the percent effect values using the software package Genedata screener (Genedata).

Structure (SMILES) | IC50 (PDHK2) | Kd (human PDHK2 (12-407)) | IC50 [1]
COc1ccc(C(=O)N(C)[C@H]2CCN(C(=O)[C@@](C)(O)C(F)(F)F)C[C@H]2C)cc1 [Compound A35, 4-Methoxy-N-methyl-N-[(3R,4S)-3-methyl-1-[(2R)-3,3,3-trifluoro-2-hydroxy-2-methylpropanoyl]piperidin-4-yl]benzamide] | 310 nM | 37 nM | 33 nM
C[C@@H]1CN(C(=O)[C@@](C)(O)C(F)(F)F)CC[C@@H]1N(C)C(=O)c1ccc(F)cc1F [Compound A38, 2,4-Difluoro-N-methyl-N-[(3R,4S)-3-methyl-1-[(2R)-3,3,3-trifluoro-2-hydroxy-2-methylpropanoyl]piperidin-4-yl]benzamide] | 180 nM | 19 nM | 110 nM
C[C@@H]1CN(C(=O)[C@@](C)(O)C(F)(F)F)CC[C@@H]1N(C)C(=O)c1ncc(F)cc1F [Compound A41, 3,5-Difluoro-N-methyl-N-[(3R,4S)-3-methyl-1-[(2R)-3,3,3-trifluoro-2-hydroxy-2-methylpropanoyl]piperidin-4-yl]pyridine-2-carboxamide] | 240 nM | 66 nM | 180 nM
C[C@@H]1CN(C(=O)[C@@](C)(O)C(F)(F)F)CC[C@@H]1N(C)C(=O)c1ccc(C#N)cc1 [Compound A44, 4-Cyano-N-methyl-N-[(3R,4S)-3-methyl-1-[(2R)-3,3,3-trifluoro-2-hydroxy-2-methylpropanoyl]piperidin-4-yl]benzamide] | 300 nM | 53 nM | 350 nM
C[C@@H]1CN(C(=O)[C@@](C)(O)C(F)(F)F)CC[C@@H]1N(C)C(=O)c1ccc(C(F)(F)F)cc1F [Compound A47, 2-Fluoro-N-methyl-N-[(3R,4S)-3-methyl-1-[(2R)-3,3,3-trifluoro-2-hydroxy-2-methylpropanoyl]piperidin-4-yl]-4-(trifluoromethyl)benzamide] | 230 nM | 35 nM | 190 nM
C[C@@H]1CN(C(=O)[C@@](C)(O)C(F)(F)F)CC[C@@H]1N(C)C(=O)c1ccc(F)cc1Cl [Compound A50, 2-Chloro-4-fluoro-N-methyl-N-[(3R,4S)-3-methyl-1-[(2R)-3,3,3-trifluoro-2-hydroxy-2-methylpropanoyl]piperidin-4-yl]benzamide] | 150 nM | 13 nM | 61 nM
C[C@@H]1CN(C(=O)[C@@](C)(O)C(F)(F)F)CC[C@@H]1N(C)C(=O)c1ccc(F)cn1 [Compound A53, 5-Fluoro-N-methyl-N-[(3R,4S)-3-methyl-1-[(2R)-3,3,3-trifluoro-2-hydroxy-2-methylpropanoyl]piperidin-4-yl]pyridine-2-carboxamide] | 410 nM | 51 nM | 340 nM
C[C@@H]1CN(C(=O)[C@@](C)(O)C(F)(F)F)CC[C@@H]1N(C)C(=O)c1cnn(C)c1 [Compound A56, N,1-Dimethyl-N-[(3R,4S)-3-methyl-1-[(2R)-3,3,3-trifluoro-2-hydroxy-2-methylpropanoyl]piperidin-4-yl]-1H-pyrazole-4-carboxamide] | 230 nM | 130 nM | 910 nM
C[C@@H]1CN(C(=O)[C@@](C)(O)C(F)(F)F)CC[C@@H]1N(C)C(=O)c1ccc(Cl)cc1F [Compound A59, 4-Chloro-2-fluoro-N-methyl-N-[(3R,4S)-3-methyl-1-[(2R)-3,3,3-trifluoro-2-hydroxy-2-methylpropanoyl]piperidin-4-yl]benzamide] | 98 nM | 20 nM | 53 nM
C[C@@H]1CN(C(=O)[C@@](C)(O)C(F)(F)F)CC[C@@H]1N(C)C(=O)c1ccc(C(F)(F)F)cc1 [Compound A62, N-Methyl-N-[(3R,4S)-3-methyl-1-[(2R)-3,3,3-trifluoro-2-hydroxy-2-methylpropanoyl]piperidin-4-yl]-4-(trifluoromethyl)benzamide] | 290 nM | 44 nM | 290 nM
CCN(C(=O)c1ccc(C)cc1F)C1CCN(C(=O)[C@@](C)(O)C(F)(F)F)CC1 [Compound A64, N-Ethyl-2-fluoro-4-methyl-N-[1-((R)-3,3,3-trifluoro-2-hydroxy-2-methyl-propionyl)-piperidin-4-yl]-benzamide] | 410 nM | 69 nM | 310 nM
Cc1ccc(C(=O)N(C(C)C)C2CCN(C(=O)[C@@](C)(O)C(F)(F)F)CC2)c(F)c1 [Compound A65, 2-Fluoro-N-isopropyl-4-methyl-N-[1-((R)-3,3,3-trifluoro-2-hydroxy-2-methyl-propionyl)-piperidin-4-yl]-benzamide] | 1300 nM | 140 nM | 590 nM
CCN(C(=O)c1ccc(C#N)cc1)C1CCN(C(=O)[C@@](C)(O)C(F)(F)F)CC1 [Compound A66, 4-Cyano-N-ethyl-N-[1-((R)-3,3,3-trifluoro-2-hydroxy-2-methyl-propionyl)-piperidin-4-yl]-benzamide] | 2100 nM | 350 nM | 2700 nM
CC(C)N(C(=O)c1ccc(C#N)cc1)C1CCN(C(=O)[C@@](C)(O)C(F)(F)F)CC1 [Compound A67, 4-Cyano-N-isopropyl-N-[1-((R)-3,3,3-trifluoro-2-hydroxy-2-methyl-propionyl)-piperidin-4-yl]-benzamide] | 1600 nM | 470 nM | 4100 nM
